Reference: the supplement of paper PMC10307832

What was measured:
Test in all cases: relative viability (nuclei count vs DMSO), 5 days (fraction); higher = more cells survive
[1] = system: NCI-H596
Summary of the method: (§1)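 Cells from lung cancer lines were seeded into 1536-well plates and, one day later, dosed by pin tool. Treatments were either a single drug or a fixed dose of an anchor drug with five library-drug doses (not always all listed) in √10 steps. After 5 days, nuclei were stained in a one-step fixation (final 0.05% Triton X-100, 1% formaldehyde, 1 ug/ml Hoechst) and counted on 4× images, and relative viability is the treated-to-vehicle nuclei ratio, as the median of duplicate plates.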

[2] = system: NCI-H1703
Summary of the method: as §1

[3] = system: NCI-H23
Summary of the method: as §1

[4] = system: A549
Summary of the method: as §1

[5] = system: IA-LM
Summary of the method: as §1

[6] = system: NCI-H1993
Summary of the method: as §1

[7] = system: NCI-H1299
Summary of the method: as §1

[8] = system: EBC-1
Summary of the method: as §1

[9] = system: Calu-6
Summary of the method: as §1

NC(=O)Nc1cc(-c2cccc(F)c2)sc1C(=O)N[C@H]1CCCNC1 [AZD7762] + Cc1nc(NC(=O)N2CCC[C@H]2C(N)=O)sc1-c1ccnc(C(C)(C)C(F)(F)F)c1 [Alpelisib] (partner 2 µM) gave a relative viability ([1]; first compound 0.01 µM) of 0.549, a relative viability ([1]; first compound 0.03162 µM) of 0.514 and a relative viability ([1]; first compound 0.1 µM) of 0.481. For the same compound, the relative viability ([1]; first compound 0.3162 µM) was 0.503, the relative viability ([1]; first compound 1 µM) was 0.421 and the relative viability ([2]; first compound 0.01 µM) was 0.314. It also gave a relative viability ([2]; first compound 0.03162 µM) of 0.224, a relative viability ([2]; first compound 0.1 µM) of 0.231 and a relative viability ([2]; first compound 0.3162 µM) of 0.164. The relative viability ([2]; first compound 1 µM) was 0.146, the relative viability ([3]; first compound 0.01 µM) was 0.859 and the relative viability ([3]; first compound 0.03162 µM) was 0.721. For the same compound, the relative viability ([3]; first compound 0.1 µM) was 0.745, the relative viability ([3]; first compound 0.3162 µM) was 0.562 and the relative viability ([3]; first compound 1 µM) was 0.418. For the same compound, the relative viability ([4]; first compound 0.01 µM) was 0.748, the relative viability ([4]; first compound 0.03162 µM) was 0.86 and the relative viability ([4]; first compound 0.1 µM) was 0.83. It also gave a relative viability ([4]; first compound 0.3162 µM) of 0.84, a relative viability ([4]; first compound 1 µM) of 0.336 and a relative viability ([5]; first compound 0.01 µM) of 0.828. It also gave a relative viability ([5]; first compound 0.03162 µM) of 0.702, a relative viability ([5]; first compound 0.1 µM) of 0.885 and a relative viability ([5]; first compound 0.3162 µM) of 1.07. For the same compound, the relative viability ([5]; first compound 1 µM) was 0.364, the relative viability ([6]; first compound 0.01 µM) was 0.671 and the relative viability ([6]; first compound 0.03162 µM) was 0.708. The relative viability ([6]; first compound 0.1 µM) was 0.651, the relative viability ([6]; first compound 0.3162 µM) was 0.673 and the relative viability ([6]; first compound 1 µM) was 0.753. The relative viability ([7]; first compound 0.01 µM) was 1.16, the relative viability ([7]; first compound 0.03162 µM) was 1.01 and the relative viability ([7]; first compound 0.1 µM) was 1.03. For the same compound, the relative viability ([7]; first compound 0.3162 µM) was 1.04, the relative viability ([7]; first compound 1 µM) was 0.942 and the relative viability ([8]; first compound 0.01 µM) was 0.952. For the same compound, the relative viability ([8]; first compound 0.03162 µM) was 0.714, the relative viability ([8]; first compound 0.1 µM) was 0.831 and the relative viability ([8]; first compound 0.3162 µM) was 0.763. For the same compound, the relative viability ([8]; first compound 1 µM) was 0.367, the relative viability ([9]; first compound 0.01 µM) was 1.03 and the relative viability ([9]; first compound 0.03162 µM) was 0.935. The relative viability ([9]; first compound 0.1 µM) was 0.881, the relative viability ([9]; first compound 0.3162 µM) was 0.411 and the relative viability ([9]; first compound 1 µM) was 0.157.

NC(=O)Nc1cc(-c2cccc(F)c2)sc1C(=O)N[C@H]1CCCNC1 [AZD7762] + CS(=O)(=O)CCNCc1ccc(-c2ccc3ncnc(Nc4ccc(OCc5cccc(F)c5)c(Cl)c4)c3c2)o1 [Lapatinib] (partner 2 µM) showed a relative viability ([1]; first compound 0.01 µM) of 1.11, a relative viability ([1]; first compound 0.03162 µM) of 1.01 and a relative viability ([1]; first compound 0.1 µM) of 1.13. For the same compound, the relative viability ([1]; first compound 0.3162 µM) was 1.11, the relative viability ([1]; first compound 1 µM) was 0.891 and the relative viability ([2]; first compound 0.01 µM) was 0.627. It also gave a relative viability ([2]; first compound 0.03162 µM) of 0.31, a relative viability ([2]; first compound 0.1 µM) of 0.238 and a relative viability ([2]; first compound 0.3162 µM) of 0.176. For the same compound, the relative viability ([2]; first compound 1 µM) was 0.156, the relative viability ([3]; first compound 0.01 µM) was 1.08 and the relative viability ([3]; first compound 0.03162 µM) was 1.04. For the same compound, the relative viability ([3]; first compound 0.1 µM) was 1.18, the relative viability ([3]; first compound 0.3162 µM) was 0.508 and the relative viability ([3]; first compound 1 µM) was 0.3. It also gave a relative viability ([4]; first compound 0.01 µM) of 1.12, a relative viability ([4]; first compound 0.03162 µM) of 1.02 and a relative viability ([4]; first compound 0.1 µM) of 1.05. The relative viability ([4]; first compound 0.3162 µM) was 0.823, the relative viability ([4]; first compound 1 µM) was 0.198 and the relative viability ([5]; first compound 0.01 µM) was 1.13. For the same compound, the relative viability ([5]; first compound 0.03162 µM) was 1.11, the relative viability ([5]; first compound 0.1 µM) was 1.1 and the relative viability ([5]; first compound 0.3162 µM) was 0.798. The relative viability ([5]; first compound 1 µM) was 0.16, the relative viability ([6]; first compound 0.01 µM) was 0.791 and the relative viability ([6]; first compound 0.03162 µM) was 0.789. It also gave a relative viability ([6]; first compound 0.1 µM) of 0.664, a relative viability ([6]; first compound 0.3162 µM) of 0.89 and a relative viability ([6]; first compound 1 µM) of 0.793. The relative viability ([7]; first compound 0.01 µM) was 0.955, the relative viability ([7]; first compound 0.03162 µM) was 0.963 and the relative viability ([7]; first compound 0.1 µM) was 0.968. For the same compound, the relative viability ([7]; first compound 0.3162 µM) was 0.811, the relative viability ([7]; first compound 1 µM) was 0.289 and the relative viability ([8]; first compound 0.01 µM) was 0.215. The relative viability ([8]; first compound 0.03162 µM) was 0.191, the relative viability ([8]; first compound 0.1 µM) was 0.234 and the relative viability ([8]; first compound 0.3162 µM) was 0.199. It also gave a relative viability ([8]; first compound 1 µM) of 0.186, a relative viability ([9]; first compound 0.01 µM) of 1.11 and a relative viability ([9]; first compound 0.03162 µM) of 1.02. The relative viability ([9]; first compound 0.1 µM) was 0.96, the relative viability ([9]; first compound 0.3162 µM) was 0.2 and the relative viability ([9]; first compound 1 µM) was 0.147.

NC(=O)Nc1cc(-c2cccc(F)c2)sc1C(=O)N[C@H]1CCCNC1 [AZD7762] + CC1(C)CCC(c2ccc(Cl)cc2)=C(CN2CCN(c3ccc(C(=O)NS(=O)(=O)c4ccc(N[C@H](CCN5CCOCC5)CSc5ccccc5)c(S(=O)(=O)C(F)(F)F)c4)cc3)CC2)C1 [Navitoclax] (partner 0.5 µM) gave a relative viability ([1]; first compound 0.01 µM) of 1.14, a relative viability ([1]; first compound 0.03162 µM) of 0.936 and a relative viability ([1]; first compound 0.1 µM) of 1.06. The relative viability ([1]; first compound 0.3162 µM) was 0.912, the relative viability ([1]; first compound 1 µM) was 0.698 and the relative viability ([2]; first compound 0.01 µM) was 0.673. For the same compound, the relative viability ([2]; first compound 0.03162 µM) was 0.286, the relative viability ([2]; first compound 0.1 µM) was 0.253 and the relative viability ([2]; first compound 0.3162 µM) was 0.178. For the same compound, the relative viability ([2]; first compound 1 µM) was 0.114, the relative viability ([3]; first compound 0.01 µM) was 0.983 and the relative viability ([3]; first compound 0.03162 µM) was 0.886. The relative viability ([3]; first compound 0.1 µM) was 0.905, the relative viability ([3]; first compound 0.3162 µM) was 0.783 and the relative viability ([3]; first compound 1 µM) was 0.464. For the same compound, the relative viability ([4]; first compound 0.01 µM) was 1.18, the relative viability ([4]; first compound 0.03162 µM) was 1.29 and the relative viability ([4]; first compound 0.1 µM) was 1.2. For the same compound, the relative viability ([4]; first compound 0.3162 µM) was 0.898, the relative viability ([4]; first compound 1 µM) was 0.269 and the relative viability ([5]; first compound 0.01 µM) was 0.992. For the same compound, the relative viability ([5]; first compound 0.03162 µM) was 0.858, the relative viability ([5]; first compound 0.1 µM) was 0.915 and the relative viability ([5]; first compound 0.3162 µM) was 0.985. For the same compound, the relative viability ([5]; first compound 1 µM) was 0.187, the relative viability ([6]; first compound 0.01 µM) was 0.943 and the relative viability ([6]; first compound 0.03162 µM) was 1.04. The relative viability ([6]; first compound 0.1 µM) was 0.846, the relative viability ([6]; first compound 0.3162 µM) was 0.983 and the relative viability ([6]; first compound 1 µM) was 0.823. The relative viability ([7]; first compound 0.01 µM) was 1.06, the relative viability ([7]; first compound 0.03162 µM) was 1.06 and the relative viability ([7]; first compound 0.1 µM) was 1.09. For the same compound, the relative viability ([7]; first compound 0.3162 µM) was 1.08, the relative viability ([7]; first compound 1 µM) was 0.976 and the relative viability ([8]; first compound 0.01 µM) was 0.524. It also gave a relative viability ([8]; first compound 0.03162 µM) of 0.427, a relative viability ([8]; first compound 0.1 µM) of 0.292 and a relative viability ([8]; first compound 0.3162 µM) of 0.299. For the same compound, the relative viability ([8]; first compound 1 µM) was 0.182, the relative viability ([9]; first compound 0.01 µM) was 0.813 and the relative viability ([9]; first compound 0.03162 µM) was 0.812. The relative viability ([9]; first compound 0.1 µM) was 0.531, the relative viability ([9]; first compound 0.3162 µM) was 0.129 and the relative viability ([9]; first compound 1 µM) was 0.091.

O=C(O)c1ccc(-c2c[nH]c3ncc(-c4ccccc4)cc23)cc1C1CCCC1 + C[C@@H](Oc1cc(-c2cnn(C3CCNCC3)c2)cnc1N)c1c(Cl)ccc(F)c1Cl [Crizotinib] (partner 1 µM) was tested, and the relative viability ([1]; first compound 0.04 µM) was 1, the relative viability ([1]; first compound 0.1265 µM) was 1.09 and the relative viability ([1]; first compound 0.4 µM) was 0.909. The relative viability ([1]; first compound 1.265 µM) was 1, the relative viability ([2]; first compound 0.04 µM) was 0.482 and the relative viability ([2]; first compound 0.1265 µM) was 0.85. For the same compound, the relative viability ([2]; first compound 0.4 µM) was 0.669, the relative viability ([2]; first compound 1.265 µM) was 0.647 and the relative viability ([3]; first compound 0.04 µM) was 0.689. The relative viability ([3]; first compound 0.1265 µM) was 0.598, the relative viability ([3]; first compound 0.4 µM) was 0.482 and the relative viability ([3]; first compound 1.265 µM) was 0.484. It also gave a relative viability ([4]; first compound 0.04 µM) of 0.795, a relative viability ([4]; first compound 0.1265 µM) of 0.776 and a relative viability ([4]; first compound 0.4 µM) of 0.668. For the same compound, the relative viability ([4]; first compound 1.265 µM) was 0.44, the relative viability ([5]; first compound 0.04 µM) was 0.698 and the relative viability ([5]; first compound 0.1265 µM) was 0.772. The relative viability ([5]; first compound 0.4 µM) was 0.893, the relative viability ([5]; first compound 1.265 µM) was 0.835 and the relative viability ([6]; first compound 0.04 µM) was 0.805. For the same compound, the relative viability ([6]; first compound 0.4 µM) was 0.805, the relative viability ([6]; first compound 1.265 µM) was 0.812 and the relative viability ([7]; first compound 0.04 µM) was 0.966. The relative viability ([7]; first compound 0.1265 µM) was 0.952, the relative viability ([7]; first compound 0.4 µM) was 0.916 and the relative viability ([7]; first compound 1.265 µM) was 0.868. It also gave a relative viability ([8]; first compound 0.04 µM) of 0.185, a relative viability ([8]; first compound 0.1265 µM) of 0.217 and a relative viability ([8]; first compound 0.4 µM) of 0.185. For the same compound, the relative viability ([8]; first compound 1.265 µM) was 0.191, the relative viability ([9]; first compound 0.04 µM) was 0.828 and the relative viability ([9]; first compound 0.1265 µM) was 0.777. The relative viability ([9]; first compound 0.4 µM) was 0.72 and the relative viability ([9]; first compound 1.265 µM) was 0.636.
